SMILES strings stand for the structures.

The text below walks through data of publication PMC6571673, “Cytostatic and Cytotoxic Natural Products against Cancer Cell Models” (Molecules, 2019).

Data set [1] deals with MDA-MB-231. The data set is described as follows: Co-localization of probe with organelle trackers, live cell imaging. The conditions noted are these: live cells, 2 µM. Format: cell-based, human. An excerpt: It is important to determine the intracellular accumulation of compound 9 as this may aid in identifying its intracellular interactions. To facilitate these experiments, a series of orthogonal fluorescent organelle markers were used for co-localization studies. The organelle marker set included indicators for the lysosome (Lysotracker Red), the mitochondria (MitoTracker Deep Red), and the endoplasmic reticulum (ER tracker Blue/White). Where applicable, nuclei were stained with Hoechst (Blue). All these markers were compatible with BODIPY-FL (green) to allow for flexible combinations. […] First, to evaluate the accumulation of compound 9a after 30 min treatment at 1 µM, washout experiments were conducted as shown in Figure 7A in the presence of Hoechst nuclear stain. Distinct green specks were observed near the nucleus of the cell.
Co-localization studies were conducted in 8-well chambered coverslips (ibidi GmbH µ-slide # 80826) for MDA-MB-231. Coverslips were first coated with 0.1% Gelatin for 30 min for better cell adherence. Cells were then plated in phenol red free medium at a density of 4 × 10^4 cells per well and incubated at 37 °C overnight. […]

Data set [2] has as its system MDA-MB-231. The data set is described as follows: Propidium iodide (PI) assay, 48 h. The format is cell-based, human. The conditions noted are these: MDA-MB-231, 48 h.
Method: (§4) The first step was to evaluate if the compounds display cytotoxicity against the adherent cells. Propidium iodide (PI) assay was performed for the drug resistant solid tumor cellular models (triple negative breast cancer models: SUM149 and MDA-MB-231) for 48 h (Figure 5) [30, 31].
For data set [3], the system named is SUP-B15. The data set is described as follows: CTG viability assay (CellTiter-Glo, 72 h). The format is cell-based, human. Conditions: Homo sapiens, SUP-B15, 72 h, mean ± SEM of triplicates. The method, then: (§1) All human cell lines were incubated at 37 °C in a 5% CO2 atmosphere and maintained under sterile conditions. Cells were tested for Mycoplasma (Lonza, Alpharetta, GA, USA) using the manufacturer’s conditions prior to experiments. Cell lines were purchased from American Type Culture Collection (ATCC, Manassas, VA, USA) or Leibniz-Institute Deutsche Sammlung von Mikroorganismen und Zellkulturen GmbH (DSMZ, Braunschweig, Germany) and cultured without antibiotics unless stated. Leukemia cells were cultured in RPMI and supplemented with 10% fetal bovine serum (FBS, Hyclone, Logan, UT, USA). SUP-B15, and KOPN-8 lines were cultured in RPMI supplemented with 10% FBS (Hyclone), 1% GlutaMAX™, 1% Pen/Step, and 0.1% β-mercaptoethanol. BJ cells were cultured in EMEM media supplemented with 10% FBS (Hyclone). Breast cancer cells (MDA-MB-231 & SUM149) were cultured in DMEM and Ham’s F12 respectively, supplemented with 10% FBS, 1% GlutaMAX™, 1% Pen/Step, and 2 µM cortisol/1 µg/mL insulin for SUM149. Both cells were grown to 80% confluence densities as recommended by ATCC. PBMCs were supplemented with concanavalin-A (5 μg/mL) and IL-2 (50 U/ml). To test general cytotoxicity, the following cell numbers were used for 384 well plates: KOPN-8 (ACC 552, infant human B cell precursor acute lymphoblastic leukemia with MLL-MLLt1/ENL fusion, 1000 cells/well), SUP-B15 (ACC389, human B cell precursor acute lymphoblastic leukemia of pediatric second relapse carrying the ALL-variant (m-bcr) of BCR-ABL1 fusion gene (e1-a2), 1600 cells/well), NALM-06 (DSMZ ACC128, non-T/non-B ALL at relapse with P15INK4B and P16INK4A deletions, 1200 cells/well), UoC-B1 (pediatric BCP-ALL at second relapse with TCF3/E2A-HFL fusion, 1000 cells/well), BJ (CRL-2522, normal human foreskin fibroblast cells, 400 cells/well) and PBMCs (periphery blood monocyte cells from healthy donors, IBC#BDC046, 10,000 cells/well).
(§2) Cytotoxicity evaluation was performed using the CellTiter-Glo Luminescent Cell Viability Assay kit (G7570, Promega, Madison, WI, USA), according to the manufacturer’s instructions. Briefly, the cell concentrations used were experimentally determined to ensure logarithmic growth during the 72-h duration of the experiment, and avoid adverse effects on cell growth by DMSO exposure. 1 × 10^3–4.8 × 10^3 or 4 × 10^2–1.2 × 10^3 cells/well were seeded in 96 or 384-well white flat-bottomed plates (3610 or 8804BC, Corning, Corning, NY, USA) in 100 µL or 30 µL/well, respectively. The plates were incubated at 37 °C in 5% CO2 for 24 h before drugging. Test compounds (10 mM in DMSO) in nine 3-fold serial dilutions were dispensed via pintool (Biomek liquid handler, Beckman, Indianapolis, USA) to assay plates. The final concentration of DMSO was 0.3% (v/v) in each well. The positive controls included staurosporine (10 μM), and gambogic acid (10 μM). The plates were incubated for 72 h at 37 °C in 5% CO2, then quenched with CellTiter-Glo® (Promega, Madison, WI, USA, 50 µL/96 or 30 µL/384), centrifuged at 1000 rpm for 1 min and incubated at RT for 20 min. Luminescence was recorded with a plate reader (Envision, Perkin Elmer, Waltham, MA, USA). The mean luminescence of each experimental treatment group was normalized as a percentage of the mean intensity of untreated controls. EC50 values were calculated by Pipeline Pilot software (Accelrys, Enterprise Platform, San Diego, CA, USA).
On the technique in general: Cellular ATP, detected with luciferase, serves as a proxy for viable cell number.

Data set [4] has as its system BJ. The data set is described as follows: CTG viability assay (CellTiter-Glo, 72 h). Format: cell-based, human. Conditions: Homo sapiens, BJ; CellTiter-Glo, 72 h; non-cancerous cells. The method, then:
as §1, §2

Data set [5] relates to SUM149. The data set is described as follows: Propidium iodide (PI) assay, 48 h. The conditions noted are these: SUM149, 48 h.
Method: as §4
Data set [6] deals with de novo protein synthesis in MDA-MB-231. The data set is described as follows: EZClick in-cell-click de novo protein synthesis assay. The format is cell-based, human. The conditions noted are these: MDA-MB-231, 2 h exposure time. An excerpt: Protein synthesis is essential in cell growth, proliferation, signaling, differentiation, and death. […] The assay includes a robust chemical method based on an alkyne containing o-propargyl-puromycin probe, which stops translation by forming covalent conjugates with nascent polypeptide chains. Truncated polypeptides are rapidly turned over by the proteasome and can be detected based on the subsequent click reaction with a fluorescent azide. To test whether these compounds (4–14) induced de novo protein synthesis inhibition, compounds were tested for a 2 h exposure time, under the same conditions as the known protein synthesis inhibitor cycloheximide (CHX) in MDA-MB-231 cell model following an in-cell-click de novo protein synthesis assay.
Biovision’s EZClick™ protein synthesis monitoring assay kit (EZClick™ Global Protein Synthesis Assay Kit, Catalog # K715-100, Milpitas, CA, USA) was used according to manufacturer’s protocol. The assay was conducted in 8-well chambered coverslips (ibidi GmbH µ-slide # 80826, Martinsried, Germany). Cells were plated at 2 × 10^4 per well and incubated at 37 °C for 12 h. Then, the cells were treated with compounds for 1.5 h and processed and stained according to protocol (representative images shown in Figure 4). Protein synthesis activity is shown in red, DNA staining is shown in green. Cycloheximide (CHX) was used as a positive control and DMSO as the negative control. Images shown were taken with a Marianas CSU-X spinning disk confocal imaging system (3i, Denver, CO, USA) configured with a Zeiss Axio Observer microscope (Carl Zeiss Inc., Thornwood, NY, USA) with diode lasers, at 63× magnification and resolution of 512 × 512 pixels (3i). For each field of view, an image stack consisting of 20 optical sections were taken at 63× magnification. The total intensity of red and green staining was quantified for the entire image stack. Six fields of view were analyzed per condition. Images shown represent a single optical section for each field of view. For each stack, the red intensity (protein synthesis) was adjusted to the green intensity (DNA content) in each image. The numbers from six images were used to calculate the average and standard deviation for each condition. Numbers were normalized to the negative control value arbitrarily set to one. The Slide viewer 6 software package was used for rendering and analysis of the images.

The test system of data set [7] is UoC-B1. The experiment in a line: CTG viability assay (CellTiter-Glo, 72 h). The conditions noted are these: Homo sapiens, mean ± SEM of triplicates. The format is cell-based. The procedure: as §1, §2
Data set [8] relates to PBMC. The data set is described as follows: CTG viability assay (CellTiter-Glo, 72 h). The conditions noted are these: Homo sapiens, non-cancerous cells. The format is cell-based. The method, then: as §1, §2
The test system of data set [9] is NALM-06. The data set is described as follows: CTG viability assay (CellTiter-Glo, 72 h). The format is cell-based. The conditions noted are these: Homo sapiens, mean ± SEM of triplicates. The method, then:
as §1, §2

Data set [10] relates to KOPN-8. The experiment in a line: CTG viability assay (CellTiter-Glo, 72 h). Conditions: Homo sapiens, mean ± SEM of triplicates. The format is cell-based. The procedure: as §1, §2
The subject of data set [11] is SUP-B15. The data set is described as follows: Cell cycle analysis (PI DNA content, flow cytometry). Format: cell-based, human. Conditions: SUP-B15, 24 h; silvestrol 5 µM, 8 5 µM, 9 10 µM, 10 5 µM, 12 10 µM, 13 10 µM. The procedure:
(§3) The samples were probed with AnnexinV-FITC (Roche/Boehringer Mannheim, Indianapolis, IN, USA) according to the manufacturer’s instructions. KOPN-8 or SUB-P15 cells were plated (1.00 × 10^6 cells/plate) and incubated for 12 h and incubated at 37 °C. Then, cells were treated with compounds or controls for 24 h. Cells were stained with AnnexinV-FITC, PI and the staining profiles were determined with FACScan and Cell-Quest software. For cellular DNA content, the same cell treatment as above was performed. Then, cells were fixed in cold 75% ethanol, treated with RNase and then stained with PI solution (50 µg/mL). Cell cycle distribution was analyzed with the FACSCalibur analyzer (BD Biosciences, Franklin Lakes, NJ, USA) and Cell-Quest software. The percentage of DNA content at different phases of the cell cycle was analyzed with ModFit-software (version 5.0, Verity Software House, Topsham, ME, USA).
(In general: A flow cytometer gives signals particle by particle.)

Data set [12] relates to KOPN-8. The description is as above. The format is cell-based, human. The conditions noted are these: KOPN-8, 24 h; silvestrol 5 µM, 8 5 µM, 9 10 µM, 10 5 µM, 12 10 µM, 13 10 µM. The procedure:
as §3

Data set [13] has as its system human cancer cell lines such as oral carcinoma, melanoma, acute myelogenous leukemia, and cervical cancer. Set-up: method as in PMID 15132542, PMID 22128783, PMID 24086701, PMID 19190247. Conditions: several human cancer cell lines; cited from earlier work.

As for `COC1=CC23CCCN2CCc2cc4c(cc2C3C1OC(=O)CCC1=[N+]2C(=Cc3c(C)cc(C)n3[B-]2(F)F)C=C1)OCO4` (stereo not shown) [9a], in data set [1], the “co-localization with endoplasmic reticulum (ER-Tracker Blue/White)” value was “Co-localization of probe 9a with ER-Tracker Blue/White”.

One may read the EC50 as the concentration that produces a half-maximal response. In the case of `C/C=C1\C(=O)C[C@@]2(O)[C@@H]3CCC4=CC(=O)CC[C@]4(C)[C@H]3CC[C@]12C` [Compound 14], the “activity in PI assay” value in data set [2] and in data set [5] was “weakest activity” in each case. The concentration for a half-maximal effect (EC50) was 17.2 ± 4.5 µM in data set [3]; over 43.3 µM in data set [4]; over 21.6 µM in data set [7]; over 43.3 µM in data set [8]; over 43.3 µM in data set [9]; over 43.3 µM in data set [10]. For the same compound, in data set [6], the “de novo protein synthesis inhibition” value is on record as “no protein synthesis inhibition”.

As for `COC(=O)[C@H]1[C@@H](O)[C@@]2(O)c3c(OC)cc(O[C@@H]4O[C@@H]([C@H](O)CO)CO[C@H]4OC)cc3O[C@@]2(c2ccc(OC)cc2)[C@@H]1c1ccccc1` [Silvestrol, reference compound], the cell cycle effect result in data set [11] and in data set [12] was “cell arrest in the G1/G0 phase” throughout. Further, the IC50 values entry in [13] is “low micromolar range”.
